Each compound was assayed on HIV-1 single-round infectious reporter virus (assay: Single-round infectious HIV-1 luciferase reporter virus infection of HeLa CD4 CCR5 cells). Conditions: Human immunodeficiency virus 1, HeLa-CD4/CCR5, 72 h, read-out: EC50 Group from Table 1.
Format: cell-based
Description: • Virus production—Human embryonic Kidney cell line, 293, propagated in Dulbecco's Modified Eagle Medium (Life Technologies, Gaithersburg, Md.) containing 10% fetal Bovine serum (FBS, Sigma, St. Louis, Mo.). • Virus infection—Human epithelial cell line, HeLa, expressing the HIV-1 receptors CD4 and CCR5 was propagated in Dulbecco's Modified Eagle Medium (Life Technologies, Gaithersburg, Md.) containing 10% fetal Bovine serum (FBS, Sigma, St. Louis, Mo.) and supplemented with 0.2 mg/mL Geneticin (Life Technologies, Gaithersburg, Md.) and 0.4 mg/mL Zeocin (Invitrogen, Carlsbad, Calif.). Virus-Single-round infectious reporter virus was produced by co-transfecting human embryonic Kidney 293 cells with an HIV-1 envelope DNA expression vector and a proviral cDNA containing an envelope deletion mutation and the luciferase reporter gene inserted in place of HIV-1 nef sequences (Chen et al, Ref 41). Transfections were performed using lipofectAMINE PLUS reagent as described by the manufacturer (Life Technologies, Gaithersburg, Md.). Experiment • 1. Compound was added to HeLa CD4 CCR5 cells plated in 96 well plates at a cell density of 1×10^4 cells per well in 100 μl Dulbecco's Modified Eagle Medium containing 10% fetal Bovine serum at a concentration of <20 μM. • 2. 100 μl of single-round infectious reporter virus in Dulbecco's Modified Eagle Medium was then added to the plated cells and compound at an approximate multiplicity of infection (MOI) of 0.01, resulting in a final volume of 200 μl per well and a final compound concentration of <10 μM. • 3. Samples were harvested 72 h after infection. • 4. Viral infection was monitored by measuring luciferase expression from viral DNA in the infected cells using a luciferase reporter gene assay kit (Roche Molecular Biochemicals, Indianapolis, Ind.). Infected cell supernatants were removed and 50 μl of Dulbecco's Modified Eagle Medium (without phenol red) and 50 μl of luciferase assay reagent reconstituted as described by the manufacturer (Roche Molecular Biochemicals, Indianapolis, Ind.) was added per well. Luciferase activity was then quantified by measuring luminescence using a Wallac microbeta scintillation counter. • 5. The percent inhibition for each compound was calculated by quantifying the level of luciferase expression in cells infected in the presence of each compound as a percentage of that observed for cells infected in the absence of compound and subtracting such a determined value from 100. • 6. An EC50 provides a method for comparing the antiviral potency of the compounds of this invention. The effective concentration for fifty percent inhibition (EC50) was calculated with the Microsoft Excel Xlfit curve fitting software. For each compound, curves were generated from percent inhibition calculated at 10 different concentrations by using a four paramenter logistic model (model 205). Table 1 is the key for the data in Tables 2-4.

Compound	EC50
N#CC(=C1CCN(C(=O)C(=O)c2c[nH]c3c(-c4cncnc4)ncnc23)CC1)c1ccccc1 [Example 34, 2-(1-(2-Oxo-2-(4-(pyrimidin-5-yl)-5H-pyrrolo[3,2-d]pyrimidin-7-yl)acetyl)piperidin-4-ylidene)-2-phenylacetonitrile]	< 1000 nM
CN(C)C(=O)c1ccn(-c2ncnc3c(C(=O)C(=O)N4CCN(C(=O)c5ccccc5)CC4)c[nH]c23)n1 [Example 13, 1-(7-(2-(4-Benzoylpiperazin-1-yl)-2-oxoacetyl)-5H -pyrrolo[3,2-d]pyrimidin-4-yl)-N,N-dimethyl-1H-pyrazole-3-carboxamide]	< 1000 nM
O=C(C(=O)N1CCN(C(=O)c2ccccc2)CC1)c1c[nH]c2c(-c3ccccn3)ncnc12 [Example 24, 1-(4-Benzoylpiperazin-1-yl)-2-(4-(pyridin-2-yl)-5H -pyrrolo[3,2-d]pyrimidin-7-yl)ethane-1,2-dione]	< 1000 nM
N#CC(=C1CCN(C(=O)C(=O)c2c[nH]c3c(-n4cccn4)ncnc23)CC1)c1ccccc1 [Example 42, 2-(1-(2-(4-(1H-Pyrazol-1-yl)-5H-pyrrolo[3,2-d]pyrimidin-7-yl)-2-oxoacetyl)piperidin-4-ylidene)-2-phenylacetonitrile]	< 1000 nM
N#Cc1ncnc2c(C(=O)C(=O)N3CCN(C(=O)c4ccccc4)CC3)c[nH]c12 [Example 12, 7-(2-(4-Benzoylpiperazin-1-yl)-2-oxoacetyl)-5H-pyrrolo[3,2-d]pyrimidine-4-carbonitrile]	< 1000 nM
CN1CCN(C(=O)c2ccn(-c3ncnc4c(C(=O)C(=O)N5CCN(C(=O)c6ccccc6)CC5)c[nH]c34)n2)CC1 [Example 14, 1-(4-Benzoylpiperazin-1-yl)-2-(4-(3-(1-methylpiperazine-4-carbonyl)-1H-pyrazol-1-yl)-5H-pyrrolo[3,2-d]pyrimidin-7-yl)ethane-1,2-dione]	< 1000 nM
O=C(C(=O)N1CCN(c2nccc3ccccc23)CC1)c1c[nH]c2c(-n3cccn3)ncnc12 [Example 32, 1-(4-(1H-Pyrazol-1-yl)-5H-pyrrolo[3,2-d]pyrimidin-7-yl)-2-(4-(isoquinolin-1-yl)piperazin-1-yl)ethane-1,2-dione]	< 1000 nM
O=C(C(=O)N1CCN(c2ncnc3ccccc23)CC1)c1c[nH]c2c(-n3cccn3)ncnc12 [Example 40, 1-(4-(1H-Pyrazol-1-yl)-5H-pyrrolo[3,2-d]pyrimidin-7-yl)-2-(4-(quinazolin-4-yl)piperazin-1-yl)ethane-1,2-dione]	< 1000 nM
O=C(C(=O)N1CCN(C(=O)c2ccccc2)CC1)c1c[nH]c2c(-c3ccncc3)ncnc12 [Example 26, 1-(4-Benzoylpiperazin-1-yl)-2-(4-(pyridin-4-yl)-5H -pyrrolo[3,2-d]pyrimidin-7-yl)ethane-1,2-dione]	< 1000 nM
O=C(C(=O)N1CCN(C(=O)c2ccccc2)CC1)c1c[nH]c2c(-c3cc[nH]n3)ncnc12 [Example 22, 1-(4-(1H-Pyrazol-3-yl)-5H-pyrrolo[3,2-d]pyrimidin-7-yl)-2-(4-benzoylpiperazin-1-yl)ethane-1,2-dione]	< 1000 nM
Cc1cnn(-c2ncnc3c(C(=O)C(=O)N4CCN(C(=O)c5ccccc5)CC4)c[nH]c23)c1 [Example 4, 1-(4-Benzoyl-piperazin-1-yl)-2-[4-(4-methyl-pyrazol-1-yl)-5H-pyrrolo[3,2-d]pyrimidin-7-yl]-ethane-1,2-dione]	< 1000 nM
N#CC(=C1CCN(C(=O)C(=O)c2c[nH]c3c(-n4cccn4)ncnc23)CC1)c1ccccn1 [Example 38, 2-(1-(2-(4-(1H-pyrazol-1-yl)-5H-pyrrolo[3,2-d]pyrimidin-7-yl)-2-oxoacetyl)piperidin-4-ylidene)-2-(pyridin-2-yl)acetonitrile]	< 1000 nM
O=C(C(=O)N1CCN(C(=O)c2ccccc2)CC1)c1c[nH]c2c(-n3ccc(-c4cccc(C(F)(F)F)c4)n3)ncnc12 [Example 19, 1-(4-Benzoylpiperazin-1-yl)-2-(4-(3-(3-(trifluoromethyl)phenyl)-1H-pyrazol-1-yl)-5H-pyrrolo[3,2-d]pyrimidin-7-yl)ethane-1,2-dione]	< 1000 nM
O=C(C(=O)N1CCN(c2nccc3ccccc23)CC1)c1c[nH]c2c(Cl)ncnc12 [Example 30, 1-(4-Chloro-5H-pyrrolo[3,2-d]pyrimidin-7-yl)-2-(4-(isoquinolin-1-yl)piperazin-1-yl)ethane-1,2-dione]	< 1000 nM

From US7902204B2 (priority 2003, dated 2011)
